The record followed here is ChEMBL document CHEMBL3991942, “Low molecular weight MYC-MAX inhibitors” (2011).

Active and inactive are the calls of the source. The rule behind the calls is not given here.

The test system of data set [1] is HL-60. Put plainly: Effect on absolute levels of Max in human HL60 nuclear extracts at 100 to 200 uM after 30 mins by co-immunoprecipitation assay. Particulars: hl-60, 0.5 h.
Data set [2] is described as follows: Cytotoxicity against rat KO-HMG cells assessed as cell growth inhibition at 6 to 50 uM after 3 to 4 days by trypan blue exclusion assay. Type of data set: cell-based.
Data set [3] has as its target Myc proto-oncogene protein (Homo sapiens) (UniProt P01106). Briefly: Binding affinity to recombinant human His6 tagged c-Myc bHLH-LZ domain (353 to 439 residues) with GGCD extension at C-terminus expressed in Escherichia coli BL21 DE3 (pLysS) by fluorescence polarization assay. For orientation: Fluorescence polarisation rises when a labelled molecule tumbles more slowly, as on binding a larger partner.

Data set [4] deals with HL-60. Briefly: Effect on absolute levels of c-Myc in human HL60 nuclear extracts at 100 to 200 uM after 30 mins by co-immunoprecipitation assay. The following applies: hl-60, 0.5 h.
Data set [5] concerns the target Protein max (Homo sapiens) (UniProt P61244). Put plainly: Binding affinity to recombinant human full length His6 tagged Max (151 residues) expressed in Escherichia coli M15 (pRep4) at 25 uM by fluorescence polarization assay.
A further data set has as its system H016.4C. Briefly: Cytotoxicity against rat H016.4C cells assessed as cell growth inhibition at 6 to 50 uM after 3 to 9 days by trypan blue exclusion assay. The class given is functional, cell-based.
In data set [6] the target is T1, c-Myc/c-Max (Homo sapiens) (UniProt P01106+P61244). Briefly: Inhibition of recombinant human His6 tagged c-Myc bHLH-LZ domain (353 to 439 residues) with GGCD extension at C-terminus/recombinant human full length His6 tagged Max (151 residues) expressed in Escherichia coli assessed as reduction of heterodimer binding to HEX labeled E-box-containing DNA after 90 mins by electrophoretic mobility shift assay.

The target in data set [7] is T1, c-Myc/c-Max (Homo sapiens). Briefly: Inhibition of c-Myc/Max interaction in human HL60 nuclear extracts at 100 to 200 uM after 30 mins by co-immunoprecipitation assay. The class given is protein assay.
The target of data set [8] is Myc proto-oncogene protein (Homo sapiens) (UniProt P01106). Put plainly: Binding affinity to recombinant human His6 tagged c-Myc bHLH-LZ domain (353 to 439 residues) with GGCD extension at C-terminus expressed in Escherichia coli BL21 DE3 (pLysS) at 25 uM by fluorescence polarization assay.
The target in data set [9] is Myc proto-oncogene protein (Rattus norvegicus) (UniProt P09416). Put plainly: Inhibition of c-Myc in rat TGR1 cells assessed as cell growth inhibition at 6 to 50 uM after 3 to 4 days by trypan blue exclusion assay. The class given is cell-based.

In the case of `O=C1/C(=C/c2ccc(Cl)cc2)SC(=S)N1CN1CCCCC1`, the Activity entry (with HL-60 [1]; in data set [2]; in the data set on HL-60 [4]) was “Non-Toxic” in each case. The K in [3] is 0.6 µM. Besides, the outcome in data set [5] was inactive. In the data set on H016.4C, the “growth inhibition (GI)” value was “inactive”. The inhibition result in [6] was “Dose-dependent effect”. Also, the inhibition result in data set [7] and in data set [9] was “Active” throughout. Also, in data set [8], the outcome was Active.
Take `O=C1NC(=S)S/C1=C\c1ccc(Cl)cc1`: the Activity entry (in the data set with HL-60 [1]; in data set [2]; with HL-60 [4]) was “Non-Toxic” in each case. The K in data set [3] came out at 2.5 µM. Also, the outcome in data set [5] was inactive. Also, the “growth inhibition (GI)” value with H016.4C is “inactive”. Also, in data set [6], the inhibition result was “Dose-dependent effect”. For the same molecule, the inhibition result in data set [7] and in data set [9] was “Active” throughout. In data set [8], the result was Active.
Consider `O=C1NC(=S)S/C1=C\C1CCCCC1`, for which the Activity entry in the data set with HL-60 [1] and in the data set with HL-60 [4] was “Non-Toxic” throughout. Moreover, in [6], the inhibition result was “Dose-dependent effect”. Further, the inhibition entry in data set [7] was “Active”.
Turning to `CCc1ccc(/C=C2\SC(=S)N(CCC(C)=O)C2=O)cc1`, the Activity entry (in the data set with HL-60 [1]; in data set [2]; in the data set on HL-60 [4]) was “Non-Toxic” in each case. In addition, the K in [3] is 1.4 µM. In addition, the result in data set [5] was inactive. Moreover, the “growth inhibition (GI)” value in the data set on H016.4C is “inactive”. Besides, the inhibition entry in data set [6] was “Dose-dependent effect”. Further, the inhibition entry in data set [7] and in data set [9] was “Active” throughout. For the same molecule, in [8], the result was Active.
For `C#CCN1C(=O)S/C(=C/c2ccc(CC)cc2)C1=O`, the Activity result (with HL-60 [1]; in data set [2]; in the data set on HL-60 [4]) was “Non-Toxic” in each case. For the same molecule, the “growth inhibition (GI)” value in the data set on H016.4C was “inactive”. Besides, the inhibition result in data set [6] was “Dose-dependent effect”. Further, the inhibition entry in data set [7] and in data set [9] was “Active” throughout.
For `CCN(CC)c1ccc(/C=C2\SC(=S)NC2=O)cc1`, the outcome in data set [5] and in data set [8] was inactive.
Turning to `C=CCN1C(=O)/C(=C\c2ccc(CC)cc2)SC1=S`, the Activity result (in the data set with HL-60 [1]; in [2]; in the data set with HL-60 [4]) was “Non-Toxic” in each case. Also, in [3], the K came out at 3.1 µM. For the same molecule, the result in data set [5] was inactive. Further, the “growth inhibition (GI)” value in the data set on H016.4C is “inactive”. Moreover, in data set [6], the inhibition result was “Dose-dependent effect”. For the same molecule, the inhibition entry in data set [7] and in data set [9] was “Active” throughout. In addition, the result in data set [8] was Active.
Consider `O=C1NC(=S)S/C1=C\c1ccc(O)c(O)c1`, for which the Activity entry (with HL-60 [1]; in data set [2]; in the data set on HL-60 [4]) was “Non-Toxic” each time. Moreover, in [3], the K came to 8.6 µM. Also, the outcome in data set [5] was inactive. For the same molecule, the “growth inhibition (GI)” value in the data set with H016.4C is “inactive”. Further, the inhibition result in data set [6] was “Dose-dependent effect”. In addition, the inhibition result in data set [7] and in data set [9] was “Active” each time. Moreover, the result in data set [8] was Active.
Consider `C/C(=C1/SC(=S)NC1=O)c1ccccc1`, for which the outcome in data set [5] and in data set [8] was inactive.
Consider `O=C1NC(=S)S/C1=C\c1ccc(O)cc1`, for which the outcome in [5] and in data set [8] was inactive.
Consider `CCc1ccc(/C=C2\SC(=S)NC2=O)cc1`, for which the Activity result (with HL-60 [1]; in [2]; with HL-60 [4]) was “Non-Toxic” throughout. In [3], the K was found to be 2.3 µM. Moreover, the outcome in data set [5] was inactive. Besides, the “growth inhibition (GI)” value in the data set on H016.4C is “inactive”. The inhibition result in [6] is “Dose-dependent effect”. Also, the inhibition result in data set [7] and in [9] was “Active” in each case. In [8], the result was Active.
On to `CC(C)c1ccc(/C=C2\SC(=S)N(CN3CCCCC3)C2=O)cc1`, for which the Activity entry (with HL-60 [1]; in [2]; in the data set on HL-60 [4]) was “Non-Toxic” in each case. In data set [3], the K was determined as 1.8 µM. Further, the outcome in [5] was inactive. Besides, in the data set on H016.4C, the “growth inhibition (GI)” value is “inactive”. In addition, the inhibition entry in data set [6] is “Dose-dependent effect”. Besides, the inhibition result in data set [7] and in data set [9] was “Active” throughout. Also, the outcome in data set [8] was Active.
For `CCc1ccc(/C=C2\SC(SC)=NC2=O)cc1`, the Activity result with HL-60 [1] and in the data set on HL-60 [4] was “Non-Toxic” throughout. Also, the K in [3] is 4.1 µM. In addition, the outcome in data set [5] was inactive. For the same molecule, the inhibition entry in [6] is “Dose-dependent effect”. For the same molecule, in [7], the inhibition result was “Active”. Moreover, the result in data set [8] was Active.
As for `CCc1ccc(/C=C2\SC(=S)N(CN3CCCCC3)C2=O)cc1`, the Activity result with HL-60 [1] and with HL-60 [4] was “Non-Toxic” in each case. Moreover, the K in data set [3] stood at 5.7 µM. Also, in [5], the result was inactive. In addition, the inhibition result in data set [6] was “Dose-dependent effect”. In addition, the inhibition entry in data set [7] was “Active”. The result in data set [8] was Active.
For the molecule `CC(C)c1ccc(/C=C2\SC(=S)NC2=O)cc1`, the Activity entry with HL-60 [1] and with HL-60 [4] was “Non-Toxic” each time. In addition, in data set [3], the K is 1 µM. Also, the result in data set [5] was inactive. For the same molecule, in [6], the inhibition result was “Dose-dependent effect”. The inhibition entry in data set [7] was “Active”. In addition, the result in [8] was Active.
